Data from patent publication US20260297081A1, “COMPOUNDS AND METHODS OF TREATING CANCERS” (Cullgen Inc., priority 2023, published 2026).

Molecular target: CDK4 (Homo sapiens, UniProt P11802+Q16531)
Assay: CDK4 percentage degradation in Calu-1 cells (Table 6)
Type: cell-based
Set-up: Cells that express cyclin D1-3 and CDK4/6 proteins were treated with heterobifunctional compounds; endogenous in cells; host or cells: Calu-1
Settings: 16 hours; for inhibition at 0.04 µM: 40 nM; for inhibition at 0.2 µM: 200 nM
Description: Calu-(cells were treated with heterobifunctional compounds at 40 nM or 200 nM for 16 hours A: protein percentage degradation […]; B: protein percentage degradation <80%, and ≥50%; C: protein percentage degradation <50%, and ≥30%; D; protein percentage degradation […]; -, data not available.
Calu-1, T47D, MCF7, HCC1428 and other cells were cultured at 37° C. with 5% CO2 in RPMI 1640 or DMEM medium supplemented with 10% fetal bovine serum. Cells were authenticated using the short tandem repeat (STR) assays. Mycoplasma test results were negative. For palbo-resistant cell model, T47D cells were cultured long-term to resistance in the presence of 1 μM Palbociclib. Cells were deemed resistant when growing in the presence of Palbo at the same rate as parental cells.
Cultured cells were washed with cold PBS once and lysed in cold RIPA buffer supplemented with protease inhibitors and phosphatase inhibitors (Beyotime Biotechnology). The solutions were then incubated at 4 ? for 30 min with gentle agitation to fully lysed cells. Cell lysates were centrifuged at 13,000 rpm for 10 min at 4 ? and pellets were discarded. Total protein concentrations in the lysates were determined following BCA assays (Beyotime Biotechnology). Cell lysates were mixed with Laemmli loading buffer and heated at 99° C. for 5 min. Proteins were resolved on SDS-PAGE and visualized using Western ECL Substrate kits on a ChemiDoc MP Imaging system (Bio-Rad). Protein bands were quantitated using the Image Lab software provided by Bio-Rad.

Chain of CDK4 (P11802 2-303 limits assumed): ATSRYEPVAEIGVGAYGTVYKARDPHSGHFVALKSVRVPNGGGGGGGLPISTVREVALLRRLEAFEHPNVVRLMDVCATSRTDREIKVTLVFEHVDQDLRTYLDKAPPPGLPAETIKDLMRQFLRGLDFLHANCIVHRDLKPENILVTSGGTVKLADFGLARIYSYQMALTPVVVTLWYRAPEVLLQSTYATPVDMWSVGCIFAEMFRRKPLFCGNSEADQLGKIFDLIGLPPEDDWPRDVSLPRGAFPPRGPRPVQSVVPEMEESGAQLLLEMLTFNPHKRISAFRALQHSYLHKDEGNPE
Chain of CDK4 (P24385 whole entry partner): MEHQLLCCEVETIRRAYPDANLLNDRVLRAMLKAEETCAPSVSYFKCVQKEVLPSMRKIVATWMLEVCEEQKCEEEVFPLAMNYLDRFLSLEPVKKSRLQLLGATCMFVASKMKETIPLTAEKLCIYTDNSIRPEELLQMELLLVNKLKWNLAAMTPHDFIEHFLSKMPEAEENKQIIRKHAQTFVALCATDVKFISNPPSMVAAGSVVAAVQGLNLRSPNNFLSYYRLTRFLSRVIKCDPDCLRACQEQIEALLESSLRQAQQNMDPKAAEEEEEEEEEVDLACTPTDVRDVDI
Chain of CDK4 (Q16531 2-1140 limits assumed): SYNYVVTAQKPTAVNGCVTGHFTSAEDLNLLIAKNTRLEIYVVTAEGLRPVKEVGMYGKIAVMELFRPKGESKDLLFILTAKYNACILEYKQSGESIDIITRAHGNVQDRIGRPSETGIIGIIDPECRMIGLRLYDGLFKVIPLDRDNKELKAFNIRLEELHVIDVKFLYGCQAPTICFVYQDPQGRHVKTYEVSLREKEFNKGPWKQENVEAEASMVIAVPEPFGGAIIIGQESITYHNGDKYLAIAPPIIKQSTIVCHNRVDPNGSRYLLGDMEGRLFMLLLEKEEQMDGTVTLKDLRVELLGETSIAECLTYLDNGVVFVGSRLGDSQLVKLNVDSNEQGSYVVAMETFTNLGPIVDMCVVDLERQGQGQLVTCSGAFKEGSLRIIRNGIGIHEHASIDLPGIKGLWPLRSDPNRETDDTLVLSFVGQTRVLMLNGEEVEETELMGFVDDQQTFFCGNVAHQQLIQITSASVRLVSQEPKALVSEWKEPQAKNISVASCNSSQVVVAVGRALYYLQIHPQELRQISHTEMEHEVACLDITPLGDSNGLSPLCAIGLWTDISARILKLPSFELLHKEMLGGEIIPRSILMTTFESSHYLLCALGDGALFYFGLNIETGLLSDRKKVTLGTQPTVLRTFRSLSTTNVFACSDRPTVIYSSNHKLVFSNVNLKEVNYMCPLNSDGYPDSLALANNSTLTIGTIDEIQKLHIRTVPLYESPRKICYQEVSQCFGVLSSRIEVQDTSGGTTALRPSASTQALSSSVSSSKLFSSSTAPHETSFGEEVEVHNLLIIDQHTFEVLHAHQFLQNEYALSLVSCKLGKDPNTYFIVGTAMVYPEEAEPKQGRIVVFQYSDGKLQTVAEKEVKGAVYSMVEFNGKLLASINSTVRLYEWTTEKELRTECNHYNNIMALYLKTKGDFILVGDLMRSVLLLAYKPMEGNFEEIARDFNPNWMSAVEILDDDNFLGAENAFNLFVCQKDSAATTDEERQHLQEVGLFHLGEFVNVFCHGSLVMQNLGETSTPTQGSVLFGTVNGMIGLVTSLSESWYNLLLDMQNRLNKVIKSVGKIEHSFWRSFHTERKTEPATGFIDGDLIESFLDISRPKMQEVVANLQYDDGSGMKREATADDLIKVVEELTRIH

| SMILES | inhibition at 0.04 µM [%] | inhibition at 0.2 µM [%] |
| --- | --- | --- |
| CC(=O)c1c(C)c2cnc(Nc3ccc(N4CCN(CC(=O)NC5CC6(C5)CC(Nc5nc(C)ccc5C(=O)Nc5cccc(C)n5)C6)CC4)cn3)nc2n(C2CCCC2)c1=O (centres unmarked) [CPD-191, 2-((6-(2-(4-(6-((6-acetyl-8-cyclopentyl-5-methyl-7-oxo-7,8-dihydropyrido[2,3-d]pyrimidin-2-yl)amino)pyridin-3-yl)piperazin-1-yl)acetamido)spiro[3.3]heptan-2-yl)amino)-6-methyl-N-(6-methylpyridin-2-yl)nicotinamide] | < 30 | 30 to 50 |
| CNc1ccc(C(=O)Nc2cccc(C3CC3)n2)c(NC2CC(NC(=O)CN3CCN(c4ccc(Nc5ncc6c(C)c(C(C)=O)c(=O)n(C7CCCC7)c6n5)nc4)CC3)C2)n1 (centres unmarked) [CPD-240, 2-((3-(2-(4-(6-((6-acetyl-8-cyclopentyl-5-methyl-7-oxo-7,8-dihydropyrido[2,3-d]pyrimidin-2-yl)amino)pyridin-3-yl)piperazin-1-yl)acetamido)cyclobutyl)amino)-N-(6-cyclopropylpyridin-2-yl)-6-(methylamino)nicotinamide] | 30 to 50 | 30 to 50 |
| CNc1ccc(C(=O)Nc2ccc(N(C)C)nn2)c(NC2CC3(CC(CCCN4CCN(c5ccc(Nc6ncc7c(C)c(C(C)=O)c(=O)n(C8CCCC8)c7n6)nc5)CC4)C3)C2)n1 (centres unmarked) [CPD-83, 2-((6-(3-(4-(6-((6-Acetyl-8-cyclopentyl-5-methyl-7-oxo-7,8-dihydropyrido[2,3-d]pyrimidin-2-yl)amino)pyridin-3-yl)piperazin-1-yl)propyl)spiro[3.3]heptan-2-yl)amino)-N-(6-(dimethylamino)pyridazin-3-yl)-6-(methylamino)nicotinamide] | < 30 | 30 to 50 |
| CNc1ccc(C(=O)Nc2cccc(C(C)C)n2)c(NC2CC3(CC(NC(=O)CN4CCN(c5ccc(Nc6ncc7c(C)c(C(C)=O)c(=O)n(C8CCCC8)c7n6)nc5)CC4)C3)C2)n1 (centres unmarked) [CPD-76, 2-((6-(2-(4-(6-((6-Acetyl-8-cyclopentyl-5-methyl-7-oxo-7,8-dihydropyrido[2,3-d]pyrimidin-2-yl)amino)pyridin-3-yl)piperazin-1-yl)acetamido)spiro[3.3]heptan-2-yl)amino)-N-(6-isopropylpyridin-2-yl)-6-(methylamino)nicotinamide] | < 30 | 30 to 50 |
| CNc1ccc(C(=O)Nc2ccccn2)c(NC2CC3(CC(NC(=O)CN4CCN(c5ccc(Nc6ncc7c(C)c(C(C)=O)c(=O)n(C8CCCC8)c7n6)nc5)CC4)C3)C2)n1 (centres unmarked) [CPD-137, 2-((6-(2-(4-(6-((6-Acetyl-8-cyclopentyl-5-methyl-7-oxo-7,8-dihydropyrido[2,3-d]pyrimidin-2-yl)amino)pyridin-3-yl)piperazin-1-yl)acetamido)spiro[3.3]heptan-2-yl)amino)-6-(methylamino)-N-(pyridin-2-yl)nicotinamide] | 30 to 50 | 30 to 50 |
| CNc1ccc(C(=O)Nc2ccc(N(C)C)nn2)c(NC2CC3(CC(CC(=O)N4CCN(c5ccc(Nc6ncc7c(C)c(C(C)=O)c(=O)n(C8CCCC8)c7n6)nc5)CC4)C3)C2)n1 (centres unmarked) [CPD-147, 2-((6-(2-(4-(6-((6-acetyl-8-cyclopentyl-5-methyl-7-oxo-7,8-dihydropyrido[2,3-d]pyrimidin-2-yl)amino)pyridin-3-yl)piperazin-1-yl)-2-oxoethyl)spiro[3.3]heptan-2-yl)amino)-N-(6-(dimethylamino)pyridazin-3-yl)-6-(methylamino)nicotinamide] | 30 to 50 | 50 to 80 |
| CNc1ccc(C(=O)Nc2cccc(C3CC3)n2)c(NC2CC3(C2)CN(C(=O)C(C)(C)N2CCN(c4ccc(Nc5ncc6c(C)c(C(C)=O)c(=O)n(C7CCCC7)c6n5)nc4)CC2)C3)n1 [CPD-175, 2-((2-(2-(4-(6-((6-acetyl-8-cyclopentyl-5-methyl-7-oxo-7,8-dihydropyrido[2,3-d]pyrimidin-2-yl)amino)pyridin-3-yl)piperazin-1-yl)-2-methylpropanoyl)-2-azaspiro[3.3]heptan-6-yl)amino)-N-(6-cyclopropylpyridin-2-yl)-6-(methylamino)nicotinamide] | < 30 | 50 to 80 |
| CNc1ccc(C(=O)Nc2ccc(F)c(C3CC3)n2)c(NC2CC3(CC(NC(=O)CN4CCN(c5ccc(Nc6ncc7c(C)c(C(C)=O)c(=O)n(C8CCCC8)c7n6)nc5)CC4)C3)C2)n1 (centres unmarked) [CPD-128, 2-((6-(2-(4-(6-((6-Acetyl-8-cyclopentyl-5-methyl-7-oxo-7,8-dihydropyrido[2,3-d]pyrimidin-2-yl)amino)pyridin-3-yl)piperazin-1-yl)acetamido)spiro[3.3]heptan-2-yl)amino)-N-(6-cyclopropyl-5-fluoropyridin-2-yl)-6-(methylamino)nicotinamide] | 50 to 80 | 50 to 80 |
| CNc1ccc(C(=O)Nc2ccc(N(C)C)nn2)c(NC2CC(CCCC(=O)N3CCN(c4ccc(Nc5ncc6c(C)c(C(C)=O)c(=O)n(C7CCCC7)c6n5)nc4)CC3)C2)n1 (centres unmarked) [CPD-156, 2-((3-(4-(4-(6-((6-acetyl-8-cyclopentyl-5-methyl-7-oxo-7,8-dihydropyrido[2,3-d]pyrimidin-2-yl)amino)pyridin-3-yl)piperazin-1-yl)-4-oxobutyl)cyclobutyl)amino)-N-(6-(dimethylamino)pyridazin-3-yl)-6-(methylamino)nicotinamide] | 50 to 80 | 50 to 80 |
| [2H]C([2H])([2H])Nc1ccc(C(=O)Nc2ccc(N(C)C)nn2)c(NC2CN(C(=O)C(F)(F)CN3CCN(c4ccc(Nc5ncc6c(C)c(C(C)=O)c(=O)n(C7CCCC7)c6n5)nc4)CC3)C2)n1 [CPD-248, 2-((1-(3-(4-(6-((6-acetyl-8-cyclopentyl-5-methyl-7-oxo-7,8-dihydropyrido[2,3-d]pyrimidin-2-yl)amino)pyridin-3-yl)piperazin-1-yl)-2,2-difluoropropanoyl)azetidin-3-yl)amino)-N-(6-(dimethylamino)pyridazin-3-yl)-6-((methyl-d3)amino)nicotinamide] | < 30 | < 30 |
| CNc1ccc(C(=O)Nc2ccc(C(F)(F)F)nn2)c(NCCCCCNC(=O)CN2CCN(c3ccc(Nc4ncc5c(C)c(C(C)=O)c(=O)n(C6CCCC6)c5n4)nc3)CC2)n1 [CPD-19, 2-((5-(2-(4-(6-((6-Acetyl-8-cyclopentyl-5-methyl-7-oxo-7,8-dihydropyrido[2,3-d]pyrimidin-2-yl)amino)pyridin-3-yl)piperazin-1-yl)acetamido)pentyl)amino)-6-(methylamino)-N-(6-(trifluoromethyl)pyridazin-3-yl)nicotinamide] | < 30 | – |
| CNc1ccc(C(=O)Nc2cc(C)on2)c(NC2CC(NC(=O)CN3CCN(c4ccc(Nc5ncc6c(C)c(C(C)=O)c(=O)n(C7CCCC7)c6n5)nc4)CC3)C2)n1 (centres unmarked) [CPD-198, 2-((3-(2-(4-(6-((6-acetyl-8-cyclopentyl-5-methyl-7-oxo-7,8-dihydropyrido[2,3-d]pyrimidin-2-yl)amino)pyridin-3-yl)piperazin-1-yl)acetamido)cyclobutyl)amino)-6-(methylamino)-N-(5-methylisoxazol-3-yl)nicotinamide] | < 30 | 30 to 50 |
